According to ChEMBL document CHEMBL3507680, “University of Dundee, Gates Library screen for HepG2 cell viability”:

Assay: Human HepG2 cell viability assay in 384 well format
Type: toxicity, cell-based
Set-up: dose 125 nL, time 70.5 hour; cytotoxicity at 70.5 h: concentration not given beside the values
Settings: HepG2 cells, read-out: Inhibition

SMILES | cytotoxicity at 70.5 h
Cc1cc(NC(=O)CCN2CCCCC2Cn2cccn2)no1 (centres undefined) | -11.9%
COCCc1noc(CN2CCCC(Cn3cncn3)C2)n1 (centres undefined) | -7.84%
CCOc1ccc(C(=O)N2CCCCC2Cn2nc(C)cc2C)cn1 (centres undefined) | 21%
Cc1nn(C)c(C)c1C1CCCN1CC(=O)NCc1ccccn1 (centres undefined) | -5.71%
Cc1cc(C(=O)N2CCCC(n3cncn3)C2)nn1C (centres undefined) | -10.8%
Cc1cc(NC(=O)CCN2CCCC2Cn2cccn2)no1 (centres undefined) | -6.26%
Cc1nn(C)c(Cl)c1C1CCCN1Cc1ccccn1 (centres undefined) | -7.44%
O=C(c1ccnc(-n2ccnc2)c1)N1CCCC(n2cccn2)C1 (centres undefined) | -2.44%
Cn1cc(C(=O)CC2CCCN2C(=O)c2cccc3ncccc23)cn1 (centres undefined) | 14.5%
Cc1cc(C)n(CC2CCCN2C(=O)c2ccc3ccccc3n2)n1 (centres undefined) | -10.7%
COCCNC(=O)CN1CCCC1c1c(C)nn(C)c1Cl (centres undefined) | -1.71%
COc1ccc(C(=O)N2CCCC(n3cncn3)C2)nn1 (centres undefined) | 10.5%
CCc1ccccc1C(=O)N1CCCC1CC(=O)c1cnn(C)c1 (centres undefined) | -13.4%
c1ncn(CC2CN(CCCOc3ccc4c(c3)OCO4)CCO2)n1 (centres undefined) | -4.94%
Cc1nc(C)n(CC2CCCN(CCCc3ccccc3)C2)n1 (centres undefined) | 4.81%
COc1cccc(CNC(=O)c2cccnc2SC(C)C)c1 | -5.9%
CC(NC(=O)Cn1cc(-c2ccccc2)cn1)C1CC1 (centres undefined) | -6.64%
Cc1cc(C)c(CNC(=O)N2CCCC2c2cccc(F)c2)c(=O)[nH]1 (centres undefined) | 26%
c1cc(CNCC2CNc3ccnn3C2)cc(N2CCOCC2)n1 (centres undefined) | -5.11%
c1cc(CNCC2CNc3ccnn3C2)cc(OC2CCCC2)n1 (centres undefined) | -5.92%

SMILES | cytotoxicity at 70.5 h
Cc1cc(C)c(CNC(=O)N2CCCC2c2ccccn2)c(=O)[nH]1 (centres undefined) | -6.29%
CCC(CC)NC(=O)Cn1cc(-c2ccccc2)cn1 | -2.71%
COc1ccccc1OCCNC(=O)N1CCC(n2cncn2)CC1 | -4.48%
CCOc1ncccc1CNC(=O)N1CCC(n2cncn2)CC1 | -0.329%
O=C1NCC(C(=O)Nc2ncc(Cc3cccc(F)c3)s2)N1 (centres undefined) | -6.09%
CC(C)c1cc(NC(=O)CNC2CCCN(c3cccnn3)C2)on1 (centres undefined) | 3.11%
Cc1nc(C)n(C2CCCN(C(=O)CCCNc3ncccn3)C2)n1 (centres undefined) | -4.88%
CCc1n[nH]c(C2CN(C(=O)CCn3ccccc3=O)CCO2)n1 (centres undefined) | -2.35%
CN1CCCN(C(=O)NCCNc2cnccn2)CC1 | -3.22%
COc1ccccc1CCNC(=O)N1CCC(n2cncn2)CC1 | -7.07%
CC(=O)N1CCCN(C(=O)NCCNc2cnccn2)CC1 | -2.47%
Cc1nc(C)n(CC2CCCN(CCCOc3ccc(F)cc3)C2)n1 (centres undefined) | -2.75%
O=C(NCCc1ccc(F)cc1)NCC(O)c1cccc(F)c1 (centres undefined) | 23.3%
COCCc1noc(CN2CCCC2Cn2nc(C)nc2C)n1 (centres undefined) | 44.8%
CCC1CN(CC(=O)N2CCCC2)CCN1CCOC (centres undefined) | -10.3%
Cc1ccc(N2CCCC(NCc3sccc3C)C2)nn1 (centres undefined) | -7.95%
Cc1nc(C)n(CC2CN(Cc3nc4ccccc4s3)CCO2)n1 (centres undefined) | 18.9%
CCC1CN(CC(=O)N2CCN(C(C)=O)CC2)CCN1CCOC (centres undefined) | -7.53%
CC(C)C(=O)NC1CCCN(C(=O)c2cc3ccccc3cc2O)C1 (centres undefined) | -4.18%
O=C(NCc1ccccc1)NCC(O)c1cccc(F)c1 (centres undefined) | -6.42%

SMILES | cytotoxicity at 70.5 h
CC(C)C(=O)NC1CCCN(C(=O)c2ccc(O)c(Cl)c2)C1 (centres undefined) | -9.92%
CCN(Cc1c(F)cccc1F)Cn1nc(C)c2c(C)onc2c1=O | 2.01%
Cc1cc(C)n(CC2CN(Cc3nc4ccccc4s3)CCO2)n1 (centres undefined) | -5.7%
CCOc1cccc2c1OCC(C(=O)NS(=O)(=O)c1cncc(Br)c1)=C2 | 2.74%
COc1ccc(CC(=O)N2CCC(Nc3ccc(C)nn3)CC2)cc1 | -3.12%
Cc1ccc(N(C)S(=O)(=O)c2cc(C(=O)O)cs2)cc1 | 4.32%
O=C(c1cnc(-c2ccccn2)s1)N1CCCC1Cn1cccn1 (centres undefined) | -8.6%
O=C(c1cnc(-c2ncccn2)s1)N1CCCC1Cn1cccn1 (centres undefined) | -2.29%
CC(C)Oc1ccc(C(=O)NCc2ccc3c(c2)CCCN3C)cn1 | -2.36%
CCOc1cccc2c1OCC(C(=O)NS(=O)(=O)c1ccc(Cl)s1)=C2 | -7.24%
CC(O)CN1CCN(C(=O)c2ccc(CN(C)C)cc2)CC1 (centres undefined) | -0.592%
CN(Cc1noc(C2CC2)n1)C1CCN(CCn2cc(C#N)cn2)C1 (centres undefined) | 22.1%
Cc1nc(C2CCCN2C(=O)CCOCc2ccccc2)no1 (centres undefined) | -8.94%
Cc1cnn(C2CCCN(C(=O)c3cccc4c3OCO4)C2)c1 (centres undefined) | -10.4%
COCCOc1ncccc1C(=O)N1CCCC1Cn1cc(C)cn1 (centres undefined) | -12%
CC(C)c1nc(CN(C)C2CCN(CCn3cc(C#N)cn3)C2)no1 (centres undefined) | -14.7%
Cc1nccn1C1CCCN(C(=O)c2cccc3c2OCO3)C1 (centres undefined) | -9.12%
Cc1nc(C)n(CC2CCCN(c3ncnc4ccccc34)C2)n1 (centres undefined) | -6.84%
Cc1cnn(CC2CCCCN2C(=O)c2ccccc2-n2cccn2)c1 (centres undefined) | -17.3%
